Measured values from US8293784B2, “α-amino acid derivatives for improving solubility” (Merck Patent GmbH, priority 2007, dated 2012).
Converted amounts (≈) assume the structure as drawn. Where two headings read alike, the source gives them in different places.

Tests used:
[1] = Visual assessment of the increase in solubility due to ectoine (clear vs cloudy solution); assay type: physicochemical; details: active compound incorporated at 1% (tiliroside) or 1.5% (5,7-dihydroxy-2-methylchromone)
Method: Firstly, 4% ectoine solutions are prepared in water and in a water/ethanol mixture (3:1). The active compound to be dissolved is subsequently incorporated into the two ectoine solutions in an amount of 1% and 1.5% respectively. The respective ectoine-free batches serve as comparison.

[2] = Solubility of PBSA in aqueous solubiliser solutions, dissolved fraction determined by HPLC; assay type: physicochemical; details: thermodynamic from solid, filtered
Method: Firstly, 4% aqueous solutions of ectoine, creatinine and pyrrolidonecarboxylic acid are prepared. The active compound PBSA is subsequently dispersed in the solution in excess. The pH of the suspension is adjusted to 4.6. Undissolved active compound is filtered off after stirring for 1 hour. The dissolved active-compound fraction is determined by high-performance liquid chromatography. The experiment without solubiliser serves as comparison. In the case of dissolution of PBSA in aqueous creatinine solution, the solubility is additionally determined at pH 5.7, i.e. in this case the pH is not restored to 4.6.

[3] = 4% of ectoine in ethanol/water 3:1
[4] = Ethanol/water 3:1, no ectoine (comparison)

Appearance of solution (visual solubility assessment) [1, 3] | Appearance of solution (visual solubility assessment) [1, 4] | Structure (SMILES) | solubility at 1 h ([2]; 4% aqueous creatinine solution, pH 4.6, aqueous with cosolvent or surfactant or cyclodextrin, pH of the dispersion set to 4.6, stirred 1 hour, read-out: Solubility of PBSA in water comprising 4% of creatinine) [µg/mL] | solubility at 1 h ([2]; 4% aqueous creatinine solution, pH 5.7, aqueous with cosolvent or surfactant or cyclodextrin, pH of the dispersion 5.7 (pH not restored to 4.6), stirred 1 hour, read-out: Solubility of PBSA in water comprising 4% of creatinine) [µg/mL] | solubility at 1 h ([2]; 4% aqueous ectoine solution, pH 4.6, aqueous with cosolvent or surfactant or cyclodextrin, pH of the dispersion set to 4.6, stirred 1 hour, read-out: Solubility of PBSA in water comprising 4% of ectoine) [µg/mL] | solubility at 1 h ([2]; 4% aqueous pyrrolidonecarboxylic acid solution, pH 4.6, aqueous with cosolvent or surfactant or cyclodextrin, pH of the dispersion set to 4.6, stirred 1 hour, read-out: Solubility of PBSA in water comprising 4% of pyrrolidonecarboxylic acid) [µg/mL] | solubility at 1 h ([2]; water without solubiliser, pH 4.6, aqueous buffer, no solubiliser, pH of the dispersion set to 4.6, stirred 1 hour, read-out: Solubility of PBSA in water) [µg/mL]
clear solution | cloudy solution | O=C(/C=C/c1ccc(O)cc1)OC[C@H]1O[C@@H](Oc2c(-c3ccc(O)cc3)oc3cc(O)cc(O)c3c2=O)[C@H](O)[C@@H](O)[C@@H]1O [Tiliroside, tiliroside] |  |  |  |  | 
 |  | O=S(=O)(O)c1ccc2[nH]c(-c3ccccc3)nc2c1 [PBSA, 2-phenylbenzimidazole-5-sulfonic acid] | 940 (≈ 3430 µM) | 8500 (≈ 31000 µM) | 600 (≈ 2190 µM) | 340 (≈ 1240 µM) | 340 (≈ 1240 µM)
clear solution | cloudy solution | Cc1cc(=O)c2c(O)cc(O)cc2o1 [5,7-Dihydroxy-2-methyl-chromone, 5,7-dihydroxy-2-methylchromone] |  |  |  |  | 
